This is an account of results in US9446091B2, “Caspofungin or salts thereof with high purity, as well as preparation method and use thereof” (Shanghai Techwell Biopharmaceutical Co., Ltd., priority 2011, dated 2016).

A short description of the data set: Study on the stability of caspofungin with low solvent residue and hyposaline (storage, then HPLC purity). The format is physicochemical. Particulars: for Purity: HPLC purity after storing at −25~−20° C. for 30 days; for Initial purity: HPLC purity before storage; for stability of the samples (degradation by HPLC analysis): stored at −25-20° C. for 30 days. As for the experimental part: In the present invention, HPLC is used to determine the purity of caspofungin or salts thereof (the compound of formula 1 or salts thereof), and to investigate the stability of sample. Said HPLC is described as follows:
Chromatographic column: 4.6×250 mm, 5 μm C18 column;
Mobile phase: A: 0.1% aqueous perchloric acid and 0.075% aqueous sodium chloride; B: acetonitrile;
Flow rate: 1.0 ml/min; Injection volume: 10 μL;
Column temperature: 35° C.±5° C.; Detection wavelength: 220 nm; Running time: 60 mins;
Retention time of major peak: about 27 min;
The samples prepared in the above example 3, example 4, example 5, example 6, example 7, example 8 and example 9 were stored at −25-20° C. for 30 days. And then HPLC analysis was applied on these samples.

With `CCC(C)CC(C)CCCCCCCCC(=O)N[C@H]1C[C@@H](O)[C@@H](NCCN)NC(=O)[C@@H]2[C@@H](O)CCN2C(=O)[C@H]([C@H](O)CCN)NC(=O)[C@H]([C@H](O)[C@@H](O)c2ccc(O)cc2)NC(=O)[C@@H]2C[C@@H](O)CN2C(=O)[C@H]([C@@H](C)O)NC1=O` (single isomer, unassigned) [Example 3, caspofungin diacetate], the Purity was 99.90%, the Initial purity is reported as 99.90% and the “stability of the samples (degradation by HPLC analysis)” value (“stability of the samples” for short) is reported as “no degradation occured”.

Regarding `CCC(C)CC(C)CCCCCCCCC(=O)N[C@H]1C[C@@H](O)[C@@H](NCCN)NC(=O)[C@@H]2[C@@H](O)CCN2C(=O)[C@H]([C@H](O)CCN)NC(=O)[C@H]([C@H](O)[C@@H](O)c2ccc(O)cc2)NC(=O)[C@@H]2C[C@@H](O)CN2C(=O)[C@H]([C@@H](C)O)NC1=O` (single isomer, unassigned) [Example 4, caspofungin diacetate], the Purity came to 99.90%, the Initial purity is 99.90% and the “stability of the samples” value was “no degradation occured”.

Turning to `CCC(C)CC(C)CCCCCCCCC(=O)N[C@H]1C[C@@H](O)[C@@H](NCCN)NC(=O)[C@@H]2[C@@H](O)CCN2C(=O)[C@H]([C@H](O)CCN)NC(=O)[C@H]([C@H](O)[C@@H](O)c2ccc(O)cc2)NC(=O)[C@@H]2C[C@@H](O)CN2C(=O)[C@H]([C@@H](C)O)NC1=O` (single isomer, unassigned) [Example 5, caspofungin diacetate], the Purity is on record as 99.91%, the Initial purity was found to be 99.91% and the “stability of the samples” value is recorded as “no degradation occured”.

On to `CCC(C)CC(C)CCCCCCCCC(=O)N[C@H]1C[C@@H](O)[C@@H](NCCN)NC(=O)[C@@H]2[C@@H](O)CCN2C(=O)[C@H]([C@H](O)CCN)NC(=O)[C@H]([C@H](O)[C@@H](O)c2ccc(O)cc2)NC(=O)[C@@H]2C[C@@H](O)CN2C(=O)[C@H]([C@@H](C)O)NC1=O` (single isomer, unassigned) [Example 6, caspofungin diacetate], for which the Purity came to 99.92%, the Initial purity was 99.92% and the “stability of the samples” value was “no degradation occured”.

As for `CCC(C)CC(C)CCCCCCCCC(=O)N[C@H]1C[C@@H](O)[C@@H](NCCN)NC(=O)[C@@H]2[C@@H](O)CCN2C(=O)[C@H]([C@H](O)CCN)NC(=O)[C@H]([C@H](O)[C@@H](O)c2ccc(O)cc2)NC(=O)[C@@H]2C[C@@H](O)CN2C(=O)[C@H]([C@@H](C)O)NC1=O` (single isomer, unassigned) [Example 7, caspofungin diacetate], the Purity is reported as 99.90%, the Initial purity was 99.90% and the “stability of the samples” value is recorded as “no degradation occured”.

As for `CCC(C)CC(C)CCCCCCCCC(=O)N[C@H]1C[C@@H](O)[C@@H](NCCN)NC(=O)[C@@H]2[C@@H](O)CCN2C(=O)[C@H]([C@H](O)CCN)NC(=O)[C@H]([C@H](O)[C@@H](O)c2ccc(O)cc2)NC(=O)[C@@H]2C[C@@H](O)CN2C(=O)[C@H]([C@@H](C)O)NC1=O` (single isomer, unassigned) [Example 8, caspofungin diacetate], the Purity came to 99.88%, the Initial purity worked out at 99.88% and the “stability of the samples” value is listed as “no degradation occured”.

As for `CCC(C)CC(C)CCCCCCCCC(=O)N[C@H]1C[C@@H](O)[C@@H](NCCN)NC(=O)[C@@H]2[C@@H](O)CCN2C(=O)[C@H]([C@H](O)CCN)NC(=O)[C@H]([C@H](O)[C@@H](O)c2ccc(O)cc2)NC(=O)[C@@H]2C[C@@H](O)CN2C(=O)[C@H]([C@@H](C)O)NC1=O` (single isomer, unassigned) [Example 9, caspofungin diacetate], the Purity came out at 99.86%, the Initial purity came to 99.86% and the “stability of the samples” value is recorded as “no degradation occured”.
